Measured values as given in ChEMBL document CHEMBL1149736, “A new acylated N-glycosyl lactam from Aristolochia contorta” (1992).
In brackets after ≈: the same amount, converted by molar mass.

Assays:
Micrococcus luteus = experiment: Antibacterial activity against Sarcina lutea; type: functional
Bacillus subtilis = experiment: Antibacterial activity against Bacillus subtilis; type: functional

MIC (Micrococcus luteus) | MIC (Bacillus subtilis) | Structure (SMILES)
5 µg/mL (≈ 15.5 µM) |  | O=C(N[C@H](CO)[C@H](O)c1ccc([N+](=O)[O-])cc1)C(Cl)Cl [CHLORAMPHENICOL]
175 µg/mL (≈ 291 µM) | 43.8 µg/mL (≈ 72.8 µM) | COc1cccc2c1cc1c3c(cc4c(c32)OCO4)C(=O)N1[C@@H]1O[C@H](COC(=O)/C=C/c2ccc(O)cc2)[C@@H](O)[C@H](O)[C@H]1O
